Several values for one entry are separate records, joined by “and”; a condition that tells them apart may be missing. Equal entries are not always repeated.
System: 299254-011-R-J1-PDC complex spheroids viability
Test: Anticancer human tumor 299254-011-R-J1-PDC patient-derived melanoma cell line growth inhibition [GQUAD]
Conditions: for viability, T/C: stronger effect = lower value; active means viability on the fitted dose curve at most 10% of control; inactive means the rest
Text: DNA G-quadruplex Stabilizer Agents in Combinations in Complex Spheroids
A high-throughput screen of multi-cell type tumor spheroids was designed to identify active combinations of DNA G-quadruplex stabilizer agents and targeted small molecules. Complex spheroids include a stromal component modeled by human endothelial cells (HUVEC) and fibroblasts modeled by human mesenchymal stem cells (MSCs). The concentration ranges selected for each drug and investigational agent were based upon clinically achievable concentrations if the clinical Cmax of the agent was known.
Compounds. The drugs and investigational agents: pidnarulex (CX-5461; NSC782164), APTO-253 (NSC789042), BRACO-19 (NSC847499), peposertib (NSC802822), ceralasertib (NSC780249), elimusertib (NSC800525), camonsertib (NSC841442), AZD-1390 (NSC803789), olaparib (NSC753686), talazoparib (NSC767125), ART-558 (NSC835418), sotorasib (NSC818433), MRTX-1133 (NSC836407), SN-38 (NSC673596), topotecan (NSC609699), etoposide (NSC141540), doxorubicin (NSC123127), gemcitabine (NSC613327), 5-fluorouracil (NSC19893), paclitaxel (NSC125973), vemurafenib (NSC761431), panobinostat (NSC761190), R-306465 (JNJ-16241199; NSC773264), adavosertib (NSC754352), TP-3654 (NSC805149), carboplatin (NSC241240), KSQ-4279 (NSC840948), and staurosporine (NSC755774) were obtained from the National Cancer Institute (NCI) Developmental Therapeutics Program Chemical Repository (34). The FDA-approved anticancer drug set is available from the NCI Developmental Therapeutics Program. […] The stock solutions were prepared in dimethyl sulfoxide (DMSO, Sigma-Aldrich, St. Louis, MO, cat. D2650) at 800-fold the tested concentration and stored at -70 degrees C prior to their use. All drugs and investigational agents were tested over a range starting from a high concentration at or near the clinical Cmax and decreasing in half-log increments. If the clinical Cmax for an agent had not been determined, the highest concentration tested was 10 microM.
2.3 Cell Culture. All cells were maintained in an incubator at 37 degrees C and 5% CO2 with 95% humidity. The PDC lines were cultured according to standard operating procedures established by the NCI PDMR. All PDCs were thawed and cultured in Matrigel-coated flasks prepared with a working solution of 1X Ham's F-12 nutrient mix, without supplementation (Invitrogen, cat. 11765054), 100 U/mL penicillin-streptomycin (Invitrogen, cat. 15140122), and 2.5% Matrigel (Corning Inc., cat. 354248) for the first three passages. The 857933-349-R-J2-PDC line was cultured in 6C/Colon 1B media, which includes advanced DMEM/F-12 (Thermo Fisher Scientific, cat. 12634028), 10 mM HEPES (Thermo Fisher Scientific, cat. 15630080), 1X GlutaMAX supplement (Thermo Fisher Scientific, cat. 35050061), 0.1 mg/mL primocin (InvivoGen, cat. ant-pm-2), 10% defined fetal bovine serum, heat inactivated (HyClone Laboratories Inc., cat. SH30070.03HI), 50% L-WRN conditioned media (ATCC, cat. CRL-3276), 1.25 mM N-Acetyl-L-cysteine (Sigma-Aldrich, cat. A9165), 10 mM nicotinamide (Sigma-Aldrich, cat. N0636), 1X B-27 supplement (Thermo Fisher Scientific, cat. 17504044), 1X N-2 supplement (Thermo Fisher Scientific, cat. 17502048), 10 microM Y-27632 dihydrochloride (Tocris Bioscience, cat. 1254), and 50 ng/mL human EGF recombinant protein (Thermo Fisher Scientific, cat. PHG0311). The 485176-168-R4-J1-PDC line was cultured in Panc media, which includes all 6C/Colon 1B media components plus 100 ng/mL human FGF-10 (Thermo Fisher Scientific, cat. 100-26), 500 nM SB-431542 (Selleckchem, cat. S1067), and gastrin (Tocris, cat. 3006).
[…]

[1] = curve of first compound, second compound 0.0316 µM
[2] = curve of first compound, second compound 0.1 µM
[3] = curve of first compound, second compound 0.316 µM
[4] = curve of first compound, second compound 1 µM
[5] = curve of first compound, second compound 3.16 µM
[6] = curve of first compound, second compound 10 µM
[7] = second compound 0.0316 µM, first compound 0.0316 µM
[8] = second compound 0.0316 µM, first compound 0.316 µM
[9] = second compound 0.1 µM, first compound 0.0316 µM
[10] = second compound 0.1 µM, first compound 0.316 µM
[11] = second compound 0.316 µM, first compound 0.0316 µM
[12] = second compound 0.316 µM, first compound 0.316 µM
[13] = second compound 1 µM, first compound 0.0316 µM
[14] = second compound 1 µM, first compound 0.316 µM
[15] = second compound 3.16 µM, first compound 0.0316 µM
[16] = second compound 3.16 µM, first compound 0.316 µM
[17] = second compound 10 µM, first compound 0.0316 µM
[18] = second compound 10 µM, first compound 0.316 µM
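Further: spheroids exposed to the agents for seven days before readout.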
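Wherever viability, T/C is given: percent viability relative to DMSO vehicle control wells = 100%.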

C=CCn1c(=O)c2cnc(Nc3ccc(N4CCN(C)CC4)cc3)nc2n1-c1cccc(C(C)(C)O)n1 + Cc1cnc(CNC(=O)c2c(=O)c3ccc(N4CCCN(C)CC4)nc3n3c2sc2ccccc23)cn1
1.18 µM: IC50 [3]
inactive: viability, T/C [7] 118% | viability, T/C (second compound 0.0316 µM, first compound 0.1 µM) 109% | viability, T/C [8] 100% | viability, T/C (second compound 0.0316 µM, first compound 1 µM) 55.2% | viability, T/C (second compound 0.0316 µM, first compound 3.16 µM) 41% | viability, T/C (second compound 0.0316 µM, first compound 10 µM) 25.3% | viability, T/C [9] 109% | viability, T/C (second compound 0.1 µM, first compound 0.1 µM) 112% | viability, T/C [10] 77.3% | viability, T/C (second compound 0.1 µM, first compound 1 µM) 64.2% | viability, T/C (second compound 0.1 µM, first compound 3.16 µM) 31.5% | viability, T/C (second compound 0.1 µM, first compound 10 µM) 27.1% | viability, T/C [11] 89.8% | viability, T/C (second compound 0.316 µM, first compound 0.1 µM) 125% | viability, T/C [12] 88.2% | viability, T/C (second compound 0.316 µM, first compound 1 µM) 55% | viability, T/C (second compound 0.316 µM, first compound 3.16 µM) 30.1% | viability, T/C (second compound 0.316 µM, first compound 10 µM) 30.1% | viability, T/C [13] 75.3% | viability, T/C (second compound 1 µM, first compound 0.1 µM) 80.8% | viability, T/C [14] 71.9% | viability, T/C (second compound 1 µM, first compound 1 µM) 38.6% | viability, T/C (second compound 1 µM, first compound 3.16 µM) 27.9% | viability, T/C (second compound 1 µM, first compound 10 µM) 24.4% | viability, T/C [15] 73.3% | viability, T/C (second compound 3.16 µM, first compound 0.1 µM) 74.9% | viability, T/C [16] 55.5% | viability, T/C (second compound 3.16 µM, first compound 1 µM) 44.4% | viability, T/C (second compound 3.16 µM, first compound 3.16 µM) 28.9% | viability, T/C (second compound 3.16 µM, first compound 10 µM) 20.2% | viability, T/C [17] 19% | viability, T/C (second compound 10 µM, first compound 0.1 µM) 15.2% | viability, T/C [18] 41.8% | viability, T/C (second compound 10 µM, first compound 1 µM) 36.9% | viability, T/C (second compound 10 µM, first compound 3.16 µM) 0.45%
0.607 µM: IC50 [5]
active: viability, T/C (second compound 10 µM, first compound 10 µM) 0.32%
1.5 µM: IC50 [2]
< 0.0316 µM: IC50 [6]
1.54 µM: IC50 [1]
0.678 µM: IC50 [4]

Cc1cccc(N(C)C(=O)C2C(O)CCN2c2nc(C)cc(C(F)(F)F)c2C#N)c1 (stereo not given)
> 10 µM: IC50 (curve of compound)
inactive: viability, T/C (compound 0.0316 µM) 96.8% and 97.5% and 104% | viability, T/C (compound 0.1 µM) 96.3% and 100% and 97.4% | viability, T/C (compound 0.316 µM) 99.6% and 98.6% and 93.5% | viability, T/C (compound 1 µM) 96.4% and 89.9% and 93.7% | viability, T/C (compound 3.16 µM) 103% and 83.6% and 97% | viability, T/C (compound 10 µM) 79.5% and 81.2% and 102%

CC1COCCN1c1cc(C2(S(C)(=N)=O)CC2)nc(-c2ccnc3[nH]ccc23)n1 (stereo not given)
4.41 µM and 4.7 µM and 1.81 µM: IC50 (curve of compound)
inactive: viability, T/C (compound 0.0316 µM) 98.9% (2×) and 94.3% | viability, T/C (compound 0.1 µM) 100% and 103% and 80.5% | viability, T/C (compound 0.316 µM) 79.7% and 97% and 97.8% | viability, T/C (compound 1 µM) 68% and 100% and 61% | viability, T/C (compound 3.16 µM) 67.9% and 60.8% and 37.7% | viability, T/C (compound 10 µM) 28.7% and 29.5% and 16.5%

Cc1cnc(CNC(=O)c2c(=O)c3ccc(N4CCCN(C)CC4)nc3n3c2sc2ccccc23)cn1
inactive: viability, T/C (compound 0.316 µM) 100% [middle of 12 runs]

C#Cc1c(F)ccc2cc(O)cc(-c3ncc4c(N5CC6CCC(C5)N6)nc(OCC56CCCN5CC(F)C6)nc4c3F)c12 (stereo not given)
inactive: viability, T/C (compound 0.0316 µM) 117% and 84.2% and 84% | viability, T/C (compound 0.1 µM) 109% and 86.1% and 98.1% | viability, T/C (compound 0.316 µM) 90.8% and 85.1% and 95.8% | viability, T/C (compound 1 µM) 118% and 83.9% and 81% | viability, T/C (compound 3.16 µM) 86.5% and 93.7% and 84.6% | viability, T/C (compound 10 µM) 82.7% and 72.7% and 67.4%
> 10 µM: IC50 (curve of compound)

Cn1ncnc1[C@H]1c2n[nH]c(=O)c3cc(F)cc(c23)N[C@@H]1c1ccc(F)cc1 + CN(C)c1ccc(Nc2c3ccc(NC(=O)CCN4CCCC4)cc3nc3cc(NC(=O)CCN4CCCC4)ccc23)cc1
> 0.316 µM: IC50 [1] | IC50 [2] | IC50 [3] | IC50 [4] | IC50 [5] | IC50 [6]
inactive: viability, T/C (second compound 0.0316 µM, first compound 0.000999 µM) 108% | viability, T/C (second compound 0.0316 µM, first compound 0.00316 µM) 101% | viability, T/C (second compound 0.0316 µM, first compound 0.00999 µM) 100% | viability, T/C [7] 101% | viability, T/C (second compound 0.0316 µM, first compound 0.0999 µM) 105% | viability, T/C [8] 83.8% | viability, T/C (second compound 0.1 µM, first compound 0.000999 µM) 90.5% | viability, T/C (second compound 0.1 µM, first compound 0.00316 µM) 109% | viability, T/C (second compound 0.1 µM, first compound 0.00999 µM) 107% | viability, T/C [9] 102% | viability, T/C (second compound 0.1 µM, first compound 0.0999 µM) 86.9% | viability, T/C [10] 87.5% | viability, T/C (second compound 0.316 µM, first compound 0.000999 µM) 110% | viability, T/C (second compound 0.316 µM, first compound 0.00316 µM) 90.3% | viability, T/C (second compound 0.316 µM, first compound 0.00999 µM) 100% | viability, T/C [11] 106% | viability, T/C (second compound 0.316 µM, first compound 0.0999 µM) 93.1% | viability, T/C [12] 97.8% | viability, T/C (second compound 1 µM, first compound 0.000999 µM) 121% | viability, T/C (second compound 1 µM, first compound 0.00316 µM) 84.5% | viability, T/C (second compound 1 µM, first compound 0.00999 µM) 98.4% | viability, T/C [13] 92.8% | viability, T/C (second compound 1 µM, first compound 0.0999 µM) 98.6% | viability, T/C [14] 92.6% | viability, T/C (second compound 3.16 µM, first compound 0.000999 µM) 110% | viability, T/C (second compound 3.16 µM, first compound 0.00316 µM) 98.2% | viability, T/C (second compound 3.16 µM, first compound 0.00999 µM) 101% | viability, T/C [15] 105% | viability, T/C (second compound 3.16 µM, first compound 0.0999 µM) 112% | viability, T/C [16] 100% | viability, T/C (second compound 10 µM, first compound 0.000999 µM) 87% | viability, T/C (second compound 10 µM, first compound 0.00316 µM) 85.2% | viability, T/C (second compound 10 µM, first compound 0.00999 µM) 89.8% | viability, T/C [17] 101% | viability, T/C (second compound 10 µM, first compound 0.0999 µM) 93.9% | viability, T/C [18] 109%

CC[C@@]1(O)C(=O)OCc2c1cc1n(c2=O)Cc2cc3c(CN(C)C)c(O)ccc3nc2-1
> 0.316 µM: IC50 (curve of compound)
inactive: viability, T/C (compound 0.000999 µM) 91.8% and 98.4% and 103% | viability, T/C (compound 0.00316 µM) 94% and 117% and 106% | viability, T/C (compound 0.00999 µM) 93.8% and 93.5% and 91.8% | viability, T/C (compound 0.0316 µM) 85.7% and 102% and 117% | viability, T/C (compound 0.0999 µM) 80.3% and 103% and 96.4% | viability, T/C (compound 0.316 µM) 97.9% and 88% and 91.1%

CC1COCCN1c1cc(-c2ccnn2C)c2ccnc(-c3ccn[nH]3)c2n1 (stereo not given)
0.122 µM and 0.186 µM and 0.137 µM: IC50 (curve of compound)
inactive: viability, T/C (compound 0.0316 µM) 91.4% and 103% and 81.2% | viability, T/C (compound 0.1 µM) 51.7% and 66.5% and 56.5% | viability, T/C (compound 0.316 µM) 36.6% and 36.5% and 32.7% | viability, T/C (compound 1 µM) 17.9% and 19.7% and 18.7% | viability, T/C (compound 3.16 µM) 22.7% and 13.6% and 13.7% | viability, T/C (compound 10 µM) 11.9% and 15.1% and 13.6%

Source: PubChem BioAssay AID2060513 (Molecular Pharmacology Branch, DTP, NCI, 2025)
